The text below walks through data of patent US20100311877A1, “NOVEL TRIAZINE DERIVATIVE, ULTRAVIOLET ABSORBER, AND RESIN COMPOSITION” (FUJIFILM Corporation, priority 2009, published 2010).

The nature of data set [1]: Measurement of pKa (perchloric acid titration, absorption spectrum). To be noted: in acetonitrile, 70% perchloric acid (acetic acid as solvent) added dropwise; ratio of triazine-free compound and proton adduct from absorbance at λmax. It counts as physicochemical. On the procedure:
Exemplified compound (1) was dissolved in acetonitrile to give its absorption coefficient of 1. […] At that time, a solution absorption spectrum was measured and a ratio of a triazine-free compound and a proton adduct at each pH was computed from the absorbance at λmax. The value of pKa was determined from a point at which the ratio became 1. […] The absorption spectrum was measured using a spectrophotometer “UV-3600” (trade name; product of Shimadzu Corp), while pH was measured using a pH meter “H[…]” (trade name; product of Toa Denpa Kogyo).

Data set [2] is described as follows: Light resistance of PMMA polymer film (remaining amount after metal halide lamp exposure). The settings on record: 50-μm PMMA film on glass, 0.2 mass % compound in coating solution, illuminance 90 mW/cm^2, 63° C., humidity 50%, 400 hours after exposure, transmittance at maximum absorption wavelength. It counts as physicochemical. On the procedure:
A binder solution was prepared by dissolving 22 mass % of a PMMA resin (“[…] BR-80”, trade name; product of Mitsubishi Rayon) in methylene chloride. A coating solution was then prepared by dissolving 0.2 mass % of Exemplified compound (1) in the resulting binder solution. Using glass as a base material, the resulting coating solution was applied thereto with a 200 μm blade and dried at 100° C. for 10 minutes into a 50-μm thick coating to prepare a film. […] The absorbance of the film was measured with a spectrophotometer “UV-3600” (trade name; product of Shimadzu Corp). The film was exposed to light of a metal halide lamp (“Eye super UV tester”, trade name; product of Iwasaki Electric) under the conditions of illuminance of 90 mW/cm^2, temperature of 63° C., and humidity of 50%. The remaining amount of each compound 400 hours after exposure was measured. The remaining amount was computed in accordance with the following equation: Remaining amount(%)=100×(100-(transmittance after exposure))/(100-(transmittance before exposure)) The transmittance is a value measured at the maximum absorption wavelength of each compound.

On to `CCCCCCOc1ccc(-c2nc(-c3ccccc3)nc(-c3ccccc3)n2)c(O)c1` [Comparative compound A], for which, in data set [1], the pKa is -4.9. The “Remaining amount (%)” value in data set [2] is reported as 63%.
Taken in the same sequence, the figures for `CCCCCCCCOc1ccc(-c2nc(-c3ccc(C)cc3C)nc(-c3ccc(C)cc3C)n2)c(O)c1` [Comparative compound B] were -4.4 and 21%.
